Reference: patent publication US20040005686A1, “Crystalline structure of human MAPKAP kinase-2” (Pharmacia Corporation, priority 2002, published 2004)
Ends that are not written are not given here.

Legend:
MK-2 = settings: cited from earlier work
[1] = target: T1, Human MAPKAP kinase-2 (45-371) (human, UniProt P49137 45-371); test: X-ray crystallography of MK-2 co-crystallized with AMP-PNP, SC-83598 and MgCl2
T1 construct: Expressed in E. coli as a GST fusion; One copy of the complex per asymmetric unit; also called MK-2(45-371); MK-2
T1 sequence (P49137 45-371 limits assumed): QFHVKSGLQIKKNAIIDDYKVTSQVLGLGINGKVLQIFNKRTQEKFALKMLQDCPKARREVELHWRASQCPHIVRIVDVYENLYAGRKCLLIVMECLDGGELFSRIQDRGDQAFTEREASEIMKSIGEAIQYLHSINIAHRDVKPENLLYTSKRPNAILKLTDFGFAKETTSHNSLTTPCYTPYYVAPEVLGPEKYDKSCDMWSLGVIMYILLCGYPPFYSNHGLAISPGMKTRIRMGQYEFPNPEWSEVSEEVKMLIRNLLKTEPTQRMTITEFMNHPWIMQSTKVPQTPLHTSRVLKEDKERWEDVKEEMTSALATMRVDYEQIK
Method: Following this general procedure the co-crystals were grown by sitting drop vapor diffusion. […] This protein solution was mixed in a 1:1 ratio with a reservoir solution containing around 1.6-2.6M ammonium sulfate and 100 mM sodium acetate, the reservoir solution being at a pH of between around 4.2-5.4. Small bipyramidal or prism-shaped crystals appeared in the drops in 1-2 days and grew to as large as 0.4 mm×0.4 mm in about 1 to 3 weeks.
Small bipyramidal or prism-shaped crystals appeared in the drops in 1-2 days and grew to as large as 0.4 mm×0.4 mm over 1-3 weeks.

binding result [1] | Molecule | activation of MK-2 (MK-2)
 | C[S+]([O-])c1ccc(-c2nc(-c3ccncc3)c(-c3ccc(F)cc3)[nH]2)cc1 (centres unmarked) [SB203580] | inhibit activation of MK-2
binds | KKKALLRQLGVAA (not fully specified) [SC-83598 (13-residue inhibitor peptide)] | 
